Reference: patent US5773646A, “Meta-substituted phenylene derivatives” (G. D. Searle & Co., priority 1997, dated 1998)
Structures can show the parent of a compound that is named as a salt. Where two headings read alike, the source gives them in different places.

Legend:
[1] = target: T1, Human fibrinogen receptor (αIIb β3) (Homo sapiens, UniProt P05106+P08514); experiment: Purified IIb/IIIa receptor assay (solid phase receptor assay, biotinylated vitronectin competition); conditions: inhibition of 50% of the maximum binding of biotinylated vitronectin; 1 nM labeled ligand, 2 hours, room temperature, highest concentration of test compound 1.0×10^-4 M
T1 construct: Human fibrinogen receptor (αIIb β3) was purified from outdated platelets; from tissue; host or cells: outdated human platelets
Text: PURIFIED IIb/IIIa RECEPTOR ASSAY Human fibrinogen receptor (αIIb β3) was purified from outdated platelets. (Pytela, R., Pierschbacher, […]., Suzuki, S., and […] acid adhesion receptors", Methods in Enzymology 144(1987):475-489.) Human vitronectin was purified from fresh frozen plasma as described in Yatohgo, T., Izumi, M., Kashiwagi, H., and Hayashi, M., "Novel purification of vitronectin from human plasma by heparin affinity chromatography," Cell Structure and Function 13(1988):281-292. Biotinylated human vitronectin was prepared by coupling NHS-biotin from Pierce Chemical Company (Rockford, Ill.) to purified vitronectin as previously described. (Charo, […]., Phillips, D. R., Hsu, M. A., Scarborough, R. M., "Inhibition of fibrinogen binding to GP IIb/IIIa by a GP IIIa peptide", J. Biol. Chem. 266(3)(1991):1415-1421.) Assay buffer, OPD substrate tablets, and RIA grade BSA were obtained from Sigma (St. Louis, Mo.). Anti-biotin antibody was obtained from Calbiochem (La Jolla, Calif.). Linbro microtiter plates were obtained from Flow Labs (McLean, Va.). ADP reagent was obtained from Sigma (St. Louis, Mo.). Solid Phase Receptor Assays This assay is essentially the same reported in […]., Bader, R., Byers-Ward, […]., Plow, E. F. and Ruggeri, Z. M., "Increased surface expression of the membrane glycoprotein IIb/IIIa complex induced by platelet activation: Relationships to the binding of fibrinogen and platelet aggregation", Blood 70(1987):475-483. The purified human fibrinogen receptor (αIIb β3) was diluted from stock solutions to 1.0 μg/mL in Tris-buffered saline containing 1.0 mM Ca^++, Mg^++, and Mn^++, pH 7.4 (TBS^+++). The diluted receptor was immediately transferred to Linbro microtiter plates at 100 μL/well (100 ng receptor/well). The plates were sealed and incubated overnight at 4° C. to allow the receptor to bind to the wells. All remaining steps were at room temperature. The assay plates were emptied and 200 μL of 1% RIA grade BSA in TBS^+++ (TBS^+++ /BSA) were added to block exposed plastic surfaces. Following a 2 hour incubation, the assay plates were washed with TBS^+++ using a 96 well plate washer. Logarithmic serial dilution of the test compound and controls were made starting at a stock concentration of 2 mM and using 2 nM biotinylated vitronectin in TBS^+++ /BSA as the diluent. This premixing of labeled ligand with test (or control) ligand, and subsequent transfer of 50 μL aliquots to the assay plate was carried out with a CETUS Propette robot; the final concentration of the labeled ligand was 1 nM and the highest concentration of test compound was 1.0×10^-4 M. The competition occurred for two hours after which all wells were washed with a plate washer as before. Affinity purified horseradish peroxidase labeled goat antibiotin antibody was diluted 1:3000 in TBS^+++ /BSA and 125 μL were added to each well. After 30 minutes, the plates were washed and incubated with […]/H2 O2 substrate in 100 mM/L citrate buffer, pH 5.0. The plate was read with a microtiter plate reader at a wavelength of 450 nm and when the maximum-binding control wells reached an absorbance of about 1.0, the final A450 were recorded for analysis. The data were analyzed using a macro written for use with the EXCELTM spreadsheet program. The mean, standard deviation, and %CV were determined for duplicate concentrations. The mean A450 values were normalized to the mean of four maximum-binding controls (no competitor added)(B-MAX). The normalized values were subjected to a four parameter curve fit algorithm, [Robard et al., Int.

[2] = target: T2, Human vitronectin receptor (αv β3) (Homo sapiens, UniProt P05106+P06756); experiment: Vitronectin adhesion assay (solid phase receptor assay, biotinylated vitronectin competition); type: binding
T2 construct: Human vitronectin receptor(αv β3) was purified from human placenta; from tissue; host or cells: human placenta
Procedure: VITRONECTIN ADHESION ASSAY Human vitronectin receptor(αv β3) was purified from human placenta as previously described [Pytela et al., Methods in Enzymology, 144:475-489 (1987)). Human vitronectin was purified from fresh frozen plasma as previously described [Yatohgo et al., Cell Structure and Function, 13:281-292 (1988)]. Biotinylated human vitronectin was prepared by coupling NHS-biotin from Pierce Chemical Company (Rockford, Ill.) to purified vitronectin as previously described [Charo et al., J. Biol. Chem., 266(3):1415-1421 (1991)]. Assay buffer, OPD substrate tablets, and RIA grade BSA were obtained from Sigma (St. Louis, Mo.). Anti-biotin antibody was obtained from Calbiochem (La Jolla, Calif.). Linbro microtiter plates were obtained from Flow Labs (McLean, Va.). ADP reagent was obtained from Sigma (St. Louis, Mo.). Solid Phase Receptor Assays This assay was essentially the same as previously reported [Niiya et al., Blood, 70:475-483 (1987)]. The purified human vitronectin receptor (αv β3) was diluted from stock solutions to 1.0 μg/mL in Tris-buffered saline containing 1.0 mM Ca^++, Mg^++, and Mn^++, pH 7.4 (TBS^+++). The diluted receptor was immediately transferred to Linbro microtiter plates at 100 μL/well (100 ng receptor/well). The plates were sealed and incubated overnight at 4° C. to allow the receptor to bind to the wells. All remaining steps were at room temperature. The assay plates were emptied and 200 μL of 1% RIA grade BSA in TBS^+++ (TBS^+++ /BSA) were added to block exposed plastic surfaces. Following a 2 hour incubation, the assay plates were washed with TBS^+++ using a 96 well plate washer. Logarithmic serial dilution of the test compound and controls were made starting at a stock concentration of 2 mM and using 2 nM biotinylated vitronectin in TBS^+++ /BSA as the diluent. This premixing of labeled ligand with test (or control) ligand, and subsequent transfer of 50 μL aliquots to the assay plate was carried out with a CETUS Propette robot; the final concentration of the labeled ligand was 1 nM and the highest concentration of test compound was 1.0×10^-4 M. The competition occurred for two hours after which all wells were washed with a plate washer as before. Affinity purified horseradish peroxidase labeled goat antibiotin antibody was diluted 1:3000 in TBS^+++ /BSA and 125 μL were added to each well. After 30 minutes, the plates were washed and incubated with OPD/H2 O2 substrate in 100 mM/L Citrate buffer, pH 5.0. The plate was read with a microtiter plate reader at a wavelength of 450 nm and when the maximum-binding control wells reached an absorbance of about 1.0, the final A450 were recorded for analysis. The data were analyzed using a macro written for use with the EXCEL™ spreadsheet program. The mean, standard deviation, and %CV were determined for duplicate concentrations. The mean A450 values were normalized to the mean of four maximum-binding controls (no competitor added)(B-MAX). The normalized values were subjected to a four parameter curve fit algorithm [Rodbard et al., Int.

[3] = inhibition of 50% of the maximum binding of biotinylated vitronectin, 1 nM labeled ligand, 2 hours, room temperature, highest concentration of test compound 1.0×10^-4 M, read-out: AvB3 IC50

Row | IC50 [1] | IC50 [2, 3] | IC50 ([2]; positive control included on each plate, range given in text, read-out: αv β3 antagonist IC50 (positive control)) | Structure (SMILES)
1 | 3250 nM | 50.3 nM | – | O=C1CC(c2cccc(NS(=O)(=O)c3cccc(NC4=NCCN4)c3)c2)c2ccccc2O1 (stereo not shown) [Example 101, 3-[(4,5-dihydro-1H-imidazol-2-yl)amino]-N-[3-(3,4-dihydro-2-oxo-2H-benzopyran-4-yl)phenyl]benzenesulfonamide, Trifluoroacetate Salt]
2 | 18900 nM | 122 nM | – | O=C(O)CC(c1cc(F)cc(F)c1)c1cccc(NS(=O)(=O)c2cccc(NC(=S)NCc3ccccc3)c2)c1 (stereo not drawn) [Example 83, 3,5-difluoro-β-[3-[[[3-[[[(phenylmethyl)amino]thiocarbonyl]amino]phenyl]sulfonyl]amino]phenyl]benzenepropanoic Acid]
3 | 706 nM | 23.2 nM | – | N=C(N)Nc1cccc(S(=O)(=O)Nc2cccc(C(CC(=O)O)c3ccccc3O)c2)c1 (stereo not drawn) [Example 102, Sodium β-[3-[[[3[(aminoiminomethyl)amino]phenyl]-sulfonyl]amino]phenyl]-2-hydroxybenzenepropanoate, Trifluoroacetate Salt]
4 | 870 nM | 19.6 nM | – | N=C(N)Nc1cccc([S+]([O-])Cc2cccc(C(CC(=O)O)c3ccccc3)c2)c1 (stereo not drawn) [Example 88, 3-[[[3-[(aminoiminomethyl)amino]phenyl]sulfinyl]methyl]-β-phenylbenzenepropanoic Acid, Trifluoroacetate Salt]
5 | 2050 nM | 12.1 nM | – | CCC(CC(=O)O)c1cccc(NS(=O)(=O)c2cccc(NC(=N)N)c2)c1 (stereo not drawn) [Example 94, 3-[[[3-[(aminoiminomethyl)amino]phenyl]sulfonyl]amino]-β-ethylbenzenepropanoic Acid, Trifluoroacetate Salt]
6 | 2340 nM | 21.8 nM | – | N=C(N)Nc1cccc(S(=O)(=O)Nc2cccc(C3CC(=O)Oc4ccccc43)c2)c1 (stereo not shown) [Example 100, 3-[(aminoiminomethyl)amino]-N-[3-(3,4-dihydro-2-oxo-2H-benzopyran-4-yl)phenyl]benzenesulfonamide, Trifluoroacetate Salt]
7 | 262 nM | 0.75 nM | – | O=C(O)CC(c1cc(F)cc(F)c1)c1cccc(NS(=O)(=O)c2cccc(NC3=NCCCN3)c2)c1 (stereo not drawn) [Example 97, 3,5-difluoro-β-[3-[[[3-[(1,4,5,6-tetrahydropyrimidin-2-yl)amino]phenyl]sulfonyl]amino]phenyl]benzenepropanoic Acid, Bis(trifluoroacetate) Salt]
8 | 1000 nM | 48.6 nM | – | O=C(O)CC(c1ccccc1)c1cccc(OCc2cccc(NC3=NCCN3)c2)c1 (stereo not drawn) [Example 99, 3-[[3-[(4,5-dihydro-1H-imidazol-2-yl)amino]phenyl]methoxy]-β-phenylbenzenepropanoic Acid, Trifluoroacetate Salt]
9 | – | – | 3 to 10 nM | N=C(N)NCCCCC(=O)NCC(=O)NC(CC(=O)O)c1cccnc1 (stereo not drawn) [β-[[2-[[5-[(aminoiminomethyl)amino]-1-oxopentyl]amino]-1-oxoethyl]amino]-3-pyridinepropanoic acid]

More lines, now with the values behind:

Row | Structure (SMILES) | IC50 [1] | IC50 [2, 3] | IC50 ([2]; positive control included on each plate, range given in text, read-out: αv β3 antagonist IC50 (positive control))
10 | N=C(N)Nc1cccc(C(=O)NCc2cccc(CCC(=O)O)c2)c1 [Example 35, 3-[[[[3-[(aminoiminomethyl)amino]phenyl]carbonyl]amino]methyl]benzenepropanoic acid, trifluoroacetate salt] | 6080 nM | 183 nM | –
11 | CC(CC(=O)O)c1cccc(CNC(=O)c2cccc(NC(N)=NC(N)=O)c2)c1 (racemic) [Example 65, (±) 3[[[[3-[[amino[(aminocarbonyl)imino]methyl]amino]phenyl]carbonyl]amino]methyl]-β-methylbenzenepropanoic acid, trifluoroacetate salt] | 4010 nM | 23 nM | –
12 | CCOC(=O)CCc1cccc(CNC(=O)c2cccc(NC(=N)N)c2)c1 [Example 34, ethyl 3-[[[[3-[(aminoiminomethyl)amino]phenyl]carbonyl]amino]methyl]benzenepropanoate, trifluoroacetate salt] | 66100 nM | 2930 nM | –
13 | N=C(N)Nc1cccc(S(=O)(=O)Nc2cccc(C(CC(=O)O)c3ccccc3)c2)c1 (stereo not drawn) [Example 1, 3-[[[3-[(aminoiminomethyl)amino]phenyl]sulfonyl]amino]-β-phenylbenzenepropanoic acid, trifluoroacetate salt] | 625 nM | 16.7 nM | –
14 | N=C(N)c1cccc(C(=O)NCc2cccc(CCC(=O)O)c2)c1 [Example 23, 3-[[[[3-(aminoiminomethyl)phenyl]carbonyl]amino]methyl]benzenepropanoic acid, trifluoroacetate salt] | 4350 nM | > 10000 nM | –
15 | CNC(=NC#N)Nc1cccc(C(=O)NCc2cccc(C(CC(=O)O)c3ccccc3)c2)c1 (stereo not drawn) [Example 55, 3-[[[[3-[[(cyanoimino)(methylamino)methyl]amino]phenyl]carbonyl]amino]methyl]-β-phenylbenzenepropanoic acid] | 13400 nM | 108 nM | –
16 | N=C(N)Nc1cccc(C#Cc2cccc(C(CC(=O)O)c3ccccc3)c2)c1 (stereo not drawn) [Example 74, 3-[2-[3-[(aminoiminomethyl)amino]phenyl]ethynyl]-β-phenylbenzenepropanoic acid, trifluoroacetate salt] | 20100 nM | 1480 nM | –
